Experimental data as given in PubChem BioAssay AID2060905 (Molecular Pharmacology Branch, DTP, NCI, 2025).

System: 282377-053-R-J1-PDC complex spheroid viability
Assay: Anticancer human tumor 282377-053-R-J1-PDC patient-derived colon adenocarcinoma cell line growth inhibition [RAS]
Settings: for IC50: curve of first compound; for viability, T/C: stronger effect = lower value
In short: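 Tumour cells grown as complex spheroids with HUVEC endothelial cells and mesenchymal stem cells, treated with RAS pathway inhibitor combinations. Each agent spans half-log steps from near clinical Cmax, or 10 microM where Cmax is unknown.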

[1] = second compound 0.000949 µM, first compound 0.0316 µM
[2] = second compound 0.000949 µM, first compound 0.1 µM
[3] = second compound 0.000949 µM, first compound 0.316 µM
[4] = second compound 0.000949 µM, first compound 1 µM
[5] = second compound 0.003 µM, first compound 0.0316 µM
[6] = second compound 0.003 µM, first compound 0.1 µM
[7] = second compound 0.003 µM, first compound 0.316 µM
[8] = second compound 0.003 µM, first compound 1 µM
[9] = second compound 0.00949 µM, first compound 0.0316 µM
[10] = second compound 0.00949 µM, first compound 0.1 µM
[11] = second compound 0.00949 µM, first compound 0.316 µM
[12] = second compound 0.00949 µM, first compound 1 µM
[13] = second compound 0.03 µM, first compound 0.0316 µM
[14] = second compound 0.03 µM, first compound 0.1 µM
[15] = second compound 0.03 µM, first compound 0.316 µM
[16] = second compound 0.03 µM, first compound 1 µM
[17] = second compound 0.0949 µM, first compound 0.0316 µM
[18] = second compound 0.0949 µM, first compound 0.1 µM
[19] = second compound 0.0949 µM, first compound 0.316 µM
[20] = second compound 0.0949 µM, first compound 1 µM
[21] = second compound 0.3 µM, first compound 0.0316 µM
[22] = second compound 0.3 µM, first compound 0.1 µM
[23] = second compound 0.3 µM, first compound 0.316 µM
[24] = second compound 0.3 µM, first compound 1 µM
[25] = second compound 0.000949 µM, first compound 3.16 µM
[26] = second compound 0.000949 µM, first compound 10 µM
[27] = second compound 0.003 µM, first compound 3.16 µM
[28] = second compound 0.003 µM, first compound 10 µM
[29] = second compound 0.00949 µM, first compound 3.16 µM
[30] = second compound 0.00949 µM, first compound 10 µM
[31] = second compound 0.03 µM, first compound 3.16 µM
[32] = second compound 0.03 µM, first compound 10 µM
[33] = second compound 0.0949 µM, first compound 3.16 µM
[34] = second compound 0.0949 µM, first compound 10 µM
[35] = second compound 0.3 µM, first compound 3.16 µM
[36] = second compound 0.3 µM, first compound 10 µM
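Further: spheroids exposed to agents for seven days before readout.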
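Wherever viability, T/C is given: luminescence viability as percent of DMSO vehicle control wells.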

Structure (SMILES): O=C(c1ccc(F)c(F)c1Nc1ccc(I)cc1F)N1CC(O)([C@@H]2CCCCN2)C1 + CCn1c(-c2cc(N3CCN(C)CC3)cnc2C(C)OC)c2c3cc(ccc31)-c1csc(n1)CC(NC(=O)C1CC1C)C(=O)N1CCCC(N1)C(=O)OCC(C)(C)C2
- IC50 (second compound 0.000949 µM): 0.0382 µM
- IC50 (second compound 0.003 µM): 0.0567 µM
- IC50 (second compound 0.00949 µM): 0.0377 µM
- IC50 (second compound 0.03 µM): 0.0119 µM
- IC50 (second compound 0.0949 µM): 0.0179 µM
- IC50 (second compound 0.3 µM): 0.0143 µM
- viability, T/C (second compound 0.000949 µM, first compound 0.00316 µM): 68.3%
- viability, T/C (second compound 0.000949 µM, first compound 0.01 µM): 65.3%
- viability, T/C [1]: 49.6%
- viability, T/C [2]: 39.9%
- viability, T/C [3]: 27.2%
- viability, T/C [4]: 16.9%
- viability, T/C (second compound 0.003 µM, first compound 0.00316 µM): 70.3%
- viability, T/C (second compound 0.003 µM, first compound 0.01 µM): 61.9%
- viability, T/C [5]: 69.6%
- viability, T/C [6]: 33.2%
- viability, T/C [7]: 26.1%
- viability, T/C [8]: 14.6%
- viability, T/C (second compound 0.00949 µM, first compound 0.00316 µM): 68%
- viability, T/C (second compound 0.00949 µM, first compound 0.01 µM): 67.4%
- viability, T/C [9]: 51.7%
- viability, T/C [10]: 34%
- viability, T/C [11]: 22.1%
- viability, T/C [12]: 16%
- viability, T/C (second compound 0.03 µM, first compound 0.00316 µM): 77.4%
- viability, T/C (second compound 0.03 µM, first compound 0.01 µM): 43%
- viability, T/C [13]: 45.9%
- viability, T/C [14]: 26.7%
- viability, T/C [15]: 20.6%
- viability, T/C [16]: 15.4%
- viability, T/C (second compound 0.0949 µM, first compound 0.00316 µM): 75.9%
- viability, T/C (second compound 0.0949 µM, first compound 0.01 µM): 68%
- viability, T/C [17]: 32%
- viability, T/C [18]: 23.8%
- viability, T/C [19]: 18.1%
- viability, T/C [20]: 13.8%
- viability, T/C (second compound 0.3 µM, first compound 0.00316 µM): 67.8%
- viability, T/C (second compound 0.3 µM, first compound 0.01 µM): 58.6%
- viability, T/C [21]: 31.1%
- viability, T/C [22]: 21.5%
- viability, T/C [23]: 18.8%
- viability, T/C [24]: 15.8%

Structure (SMILES): CC(Nc1ccc2c(c1)OCCn1cc(N3C(=O)OCC3C(F)F)nc1-2)C(N)=O (stereo unspecified) + CCn1c(-c2cccnc2C(C)OC)c2c3cc(ccc31)N1CCOC(CC(NC(=O)C(C(C)C)N(C)C(=O)C3(F)CCN(C(=O)C#CC(C)(C)N(C)C)CC3)C(=O)N3CCCC(N3)C(=O)OCC(C)(C)C2)C1
- IC50 (second compound 0.000949 µM): > 10 µM
- IC50 (second compound 0.003 µM): > 10 µM
- IC50 (second compound 0.00949 µM): > 10 µM
- IC50 (second compound 0.03 µM): > 10 µM
- IC50 (second compound 0.0949 µM): > 10 µM
- IC50 (second compound 0.3 µM): > 10 µM
- viability, T/C [1]: 97.3%
- viability, T/C [2]: 101%
- viability, T/C [3]: 86.2%
- viability, T/C [4]: 88.7%
- viability, T/C [25]: 109%
- viability, T/C [26]: 80.8%
- viability, T/C [5]: 99.8%
- viability, T/C [6]: 97.7%
- viability, T/C [7]: 86.9%
- viability, T/C [8]: 94.4%
- viability, T/C [27]: 97.5%
- viability, T/C [28]: 78.1%
- viability, T/C [9]: 118%
- viability, T/C [10]: 85.9%
- viability, T/C [11]: 84%
- viability, T/C [12]: 104%
- viability, T/C [29]: 86.3%
- viability, T/C [30]: 76.3%
- viability, T/C [13]: 83.7%
- viability, T/C [14]: 83.8%
- viability, T/C [15]: 86.5%
- viability, T/C [16]: 98.5%
- viability, T/C [31]: 110%
- viability, T/C [32]: 75.2%
- viability, T/C [17]: 102%
- viability, T/C [18]: 113%
- viability, T/C [19]: 78.8%
- viability, T/C [20]: 88.8%
- viability, T/C [33]: 96.2%
- viability, T/C [34]: 74.8%
- viability, T/C [21]: 84.7%
- viability, T/C [22]: 85.5%
- viability, T/C [23]: 96.7%
- viability, T/C [24]: 98.5%
- viability, T/C [35]: 92.2%
- viability, T/C [36]: 82.7%

Structure (SMILES): NC1c2ccccc2OC12CCN(c1cnc3c(N4CCCc5ncccc54)n[nH]c3n1)CC2 (stereo unspecified) + CCn1c(-c2cccnc2C(C)OC)c2c3cc(ccc31)N1CCOC(CC(NC(=O)C(C(C)C)N(C)C(=O)C3(F)CCN(C(=O)C#CC(C)(C)N(C)C)CC3)C(=O)N3CCCC(N3)C(=O)OCC(C)(C)C2)C1
- IC50 (second compound 0.000949 µM): > 10 µM
- IC50 (second compound 0.003 µM): > 10 µM
- IC50 (second compound 0.00949 µM): > 10 µM
- IC50 (second compound 0.03 µM): > 10 µM
- IC50 (second compound 0.0949 µM): > 10 µM
- IC50 (second compound 0.3 µM): > 10 µM
- viability, T/C [1]: 103%
- viability, T/C [2]: 104%
- viability, T/C [3]: 99.5%
- viability, T/C [4]: 101%
- viability, T/C [25]: 110%
- viability, T/C [26]: 125%
- viability, T/C [5]: 101%
- viability, T/C [6]: 100%
- viability, T/C [7]: 94.7%
- viability, T/C [8]: 100%
- viability, T/C [27]: 104%
- viability, T/C [28]: 103%
- viability, T/C [9]: 96.5%
- viability, T/C [10]: 104%
- viability, T/C [11]: 97.9%
- viability, T/C [12]: 114%
- viability, T/C [29]: 98.4%
- viability, T/C [30]: 71.9%
- viability, T/C [13]: 91.9%
- viability, T/C [14]: 101%
- viability, T/C [15]: 116%
- viability, T/C [16]: 94.8%
- viability, T/C [31]: 86%
- viability, T/C [32]: 110%
- viability, T/C [17]: 91.6%
- viability, T/C [18]: 123%
- viability, T/C [19]: 104%
- viability, T/C [20]: 97.9%
- viability, T/C [33]: 99%
- viability, T/C [34]: 118%
- viability, T/C [21]: 92.6%
- viability, T/C [22]: 88.4%
- viability, T/C [23]: 95.5%
- viability, T/C [24]: 96.8%
- viability, T/C [35]: 125%
- viability, T/C [36]: 141%
